In patent US20240189435A1, “NOVEL PEPTIDE-OLIGONUCLEOTIDE CONJUGATE AND USE THEREOF” (KOREA INSTITUTE OF SCIENCE AND TECHNOLOGY, priority 2021, published 2024):

Legend:
miRNA-21 [1] = test: Agarose gel electrophoresis of binding to miRNA-21
Description: The binding affinity of miRNA-21 and Pep-21 was evaluated through agarose gel electrophoresis, compared to Free-21.
(§1) Synthetic Pep-21 (10 pmole) was reacted with miRNA-21 and negative control miRNA in 100 μL of PBS under the same conditions as above, in other words, at 37° C. for 1 hour and then whether or not pep-21 recognizes and binds to a specific sequence of miRNA-21 was identified by agarose gel electrophoresis.

negative control miRNA = test: Agarose gel electrophoresis of sequence specificity with negative control miRNA; type: binding; conditions: 10 pmole in 100 μL PBS, 37° C., 1 hour
Description: as §1
Whether or not Pep-21 recognizes and binds to a specific sequence to miRNA-21 was determined using the negative control miRNA.

B16 melanoma cells = test: Cellular uptake in B16 melanoma cells, fluorescence microscopy; type: cell-based; conditions: B16, 300 nM Cy5-labeled, 6 hours
Description: Melanoma cells (B16) were treated with 300 nM miRNA-21 labeled with Cy5 fluorescent dye for 6 hours and the degree of intracellular uptake was then observed with a fluorescence microscope.

[2] = tested on: M2ϕ (M2 bone marrow-derived macrophages); test: Cellular uptake in M2 bone marrow-derived macrophages, fluorescence microscopy; type: cell-based; conditions: 300 nM Cy5-labeled, 6 hours, compared to Free-21
B16 melanoma = test: Anti-tumor effect in tumor animal model; type: in vivo, mice; conditions: 500 pmole intratumorally, 3 times at 3-day intervals, from day 12 after tumor inoculation
Description: (§2) On day 12 after tumor inoculation (tumor size of about 70 mm^3), PBS, peptide, Free-21, and Pep-21 were intratumorally injected three times at intervals of three days.

miRNA-21 [3] = test: RT-PCR of miRNA-21 in treated cancer tissue; type: in vivo, mice; conditions: B16 tumor tissue, compared to the control group
Description: as §2

[4] = tested on: B16 melanoma tumor tissue; test: TUNEL assay on excised tumor tissue; type: in vivo, mice; conditions: 21 days, compared to the control group
Description: (§3) 21 days after the animal test, the excised tumor tissue was analyzed by immunofluorescence.
TUNEL assay was performed on tumor tissue to determine the degree of apoptosis.

CD31 = CD31 immunofluorescence of excised tumor tissue; type: in vivo, mice; conditions: 21 days, compared to the control group
Description: as §3
In addition, immunofluorescence was performed using CD31, an angiogenesis marker.

iNOS (M1 marker) = test: Immunofluorescence of tumor-associated macrophages, iNOS; type: in vivo, mice; conditions: tumor-associated macrophages in excised tumor tissue, 21 days
Description: (§4) 21 days after the animal test, tumor-associated macrophages infiltrating the excised tumor tissue were analyzed by immunofluorescence (IF).

Arginasel (M2 marker) = test: Immunofluorescence of tumor-associated macrophages, Arginase1; type: in vivo, mice; conditions: tumor-associated macrophages in excised tumor tissue, 21 days
Description: as §4

miRNA-21 [5] = test: RT-PCR of miRNA-21 in B16 cells; type: cell-based; conditions: 300 nM, 18 hours
Description: (1) Real-time polymerase chain reaction (RT-PCR) was performed to determine whether or not miRNA-21 expression was inhibited by treatment with Pep-21. B16 cells were treated with 300 nM of Pep-21 for 18 hours, RNA was isolated, cDNA was synthesized, and then real-time polymerase chain reaction (RT-PCR) was performed using miRNA-21 primer.

B16 cells [6] = test: Cytotoxicity in B16 cells, cell counting Kit-8 (CCK-8); type: cell-based; conditions: 300 nM, 24 hours
Description: (2) To determine the cytotoxicity of this substance, B16 cells were treated with 300 nM Pep-21 for 24 hours and the cytotoxicity was confirmed using cell counting Kit-8 (CCK-8).

[7] = tested on: programmed cell death 4 (PDCD4); test: Western blot in B16 cells, PDCD4; type: cell-based; conditions: 300 nM, serum free media, 24 hours
Description: (§5) B16 cells were treated with 300 nM Pep-21 in serum free media for 24 hours, protein assay was performed and western blot was performed.
(§6) miRNA-21 related markers: programmed cell death 4 (PDCD4), matrix metalloproteinase-2 (MMP2), tissue inhibitor of metalloproteinase-3 (TIMP3)

[8] = tested on: tissue inhibitor of metalloproteinase-3 (TIMP3); test: Western blot in B16 cells, TIMP3; type: cell-based; conditions: 300 nM, serum free media, 24 hours
Description: as §5, §6

[9] = tested on: matrix metalloproteinase-2 (MMP2); test: Western blot in B16 cells, MMP2; type: cell-based; conditions: 300 nM, serum free media, 24 hours
Description: as §5, §6

B16 cells [10] = test: Scratch-wound healing assay in B16 cells; type: cell-based; conditions: 300 nM in serum free media 48 hours, observed 72 hours after wounding, compared to the control group
Description: A scratch-wound healing assay was performed in order to analyze cell migration.
B16 cells were wounded using a 200 μL pipette tip, treated with 300 nM Pep-21 in serum free media for 48 hours, and then stabilized in fresh growth media for 24 hours.

miRNA-21 [11] = test: RT-PCR of miRNA-21 in M2ϕ; type: cell-based; conditions: 300 nM, 18 hours
Description: (§7) Real-time polymerase chain reaction (RT-PCR) was performed to determine whether or not treatment with Pep-21 inhibited the expression of miRNA-21. M2ϕ was treated with 300 nM of Pep-21 for 18 hours, RNA was isolated and then real-time polymerase chain reaction (RT-PCR) was performed.

TNF-α = test: RT-PCR of inflammatory cytokines in M2ϕ, TNF-α; type: cell-based; conditions: 300 nM, 18 hours
Description: as §7
(§8) In addition, the expression level of inflammatory cytokines was determined through RT-PCR.

IL-12 = test: RT-PCR of inflammatory cytokines in M2ϕ, IL-12; type: cell-based; conditions: 300 nM, 18 hours
Description: as §7, §8

Pep-21: Azide PDL1-binding peptide (N3-NYSKPTDRQYHF, d-form) click-conjugated to DBCO-anti-miR-21 DNA 5′-TCAACATCAGTCTGATAAGCTA-3′
binding affinity to miRNA-21 (gel electrophoresis) (miRNA-21 [1]; 10 pmole annealed with miR-21 (0, 0.25, 0.5, 0.75 and 1) in 100 μL PBS, 37° C., 1 hour): binding affinity increased as the concentration increased
band shift upon reaction with miRNA-21 (miRNA-21 [1]; 10 pmole in 100 μL PBS, 37° C., 1 hour): a band shift was observed
sequence-specific recognition of miRNA-21 versus negative control miRNA (miRNA-21 [1]; conclusion from the band shift test): selectively binds to miRNA-21
band shift upon reaction with Neg-miRNA (negative control miRNA): no band shift was observed
degree of intracellular uptake (B16 melanoma cells): greatly advantageous in intracellular delivery
cellular uptake when blocking with PD-L1 antibody (B16 melanoma cells; PD-L1 antibody blocking): cellular uptake decreased
degree of uptake into cells [2]: successfully delivered anti-21 to the cytoplasm
cancer growth (B16 melanoma): inhibit cancer growth
amount of miRNA-21 expressed in cancer tissue (RT-PCR) (miRNA-21 [3]): reduced compared to the control group
degree of apoptosis (TUNEL) [4]: increased compared to the control group
CD31 (angiogenesis marker) expression (CD31): decreased compared to the control group
iNOS (M1 marker) by IF (iNOS (M1 marker)): increased
Arginasel (M2 marker) by IF (Arginasel (M2 marker)): decreased
expression of miRNA-21 (RT-PCR) (miRNA-21 [5]): decreased the expression of miRNA-21
cytotoxicity (CCK-8) (B16 cells [6]): almost no cytotoxicity
PDCD4 expression (western blot) [7]: increased
Timp3 expression (western blot) [8]: increased
MMP2 expression (western blot) [9]: decreased
cancer cell migration (B16 cells [10]): further inhibited
expression of miRNA-21 (RT-PCR) (miRNA-21 [11]): inhibited expression of miRNA-21
mRNA expression of TNF-α (TNF-α): promoted mRNA expression
mRNA expression of IL-12 (IL-12): promoted mRNA expression
